# Source: US12252493B2, “Imidazo[1,2-c]pyrimidine derivatives as PRC2 inhibitors for treating cancer” (Mirati Therapeutics, Inc., priority 2019, dated 2025)
# Read-outs that look alike come from different tables or passages of the source.
# How the values were obtained:
# [1] = target: purified human, His-tagged PRC2 complex (Homo sapiens (Human), UniProt O75530); assay: Hot Spot HMT assay of PRC2 enzymatic activity (tritiated methyl transfer from SAM to core histone); type: biochemical; conditions: 10 nM purified PRC2 complex, 0.05 mg/ml core histone H3, 1 uM 3H-SAM, 1 hr at 30° C.; read-out: IC50, Inhibition of PRC2-mediated Enzymatic Activity
# Outline: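 10 nM His-tagged five-subunit PRC2 complex (EZH2, EED, SUZ12, AEBP2, RbAp48) with 0.05 mg/ml core histone H3 in pH 8 Tris buffer, 1% DMSO, preincubated with compound 20 min at 30° C; reaction started with 1 uM [3H]-SAM, 1 hr at 30° C. Filter binding plus scintillation counting; IC50 from 10-point, three-fold dilutions starting at 1.0 μM.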
# [2] = system: PRC2-mediated histone H3 methylation (H3 Lys27 trimethylation) in Pfeiffer cells expressing mutant EZH2 (A677G); assay: Tri-Methyl Histone H3 (Lys 27) sandwich ELISA in Pfeiffer cells; type: cell-based, human; conditions: Pfeiffer cells, 96 hours incubation, ELISA, read-out: IC50, Inhibition of EZH2-mediated Histone H3 Trimethylation
# Outline: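 Pfeiffer DLBCL cells carrying EZH2 A677G were treated for 96 h at 37 °C with 3-fold dilutions, 1 μM to 0.15 nM final. Acid-extracted histones, neutralized, went into a sandwich ELISA for H3K27me3 with HRP/TMB read-out at 450 nm. Values binned A ≤250 nM, B >250–≤500 nM, C >500 nM–≤5 μM.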
# [3] = system: Karpas 422 cells expressing mutant EZH2 (Y641N); assay: Karpas 422 cell viability (Cell Titre Glo) assay; type: cell-based, human; conditions: CTG viability, time point (Day 4, Day 7 or Day 11) not given, read-out: IC50, Inhibiting Proliferation of Cells Expressing an Activating Mutant Form of EZH2
# Outline: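 Cells plated at 1000/well were exposed to final concentrations from 10 μM down to 1.5 nM (3-fold steps) at 37° C. Viability was read by CellTiter-Glo on day 4, 7 or 11; day-11 plates were re-fed with compound on day 7. IC50 reported per time point in binned ranges.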
# purified human, His-tagged PRC2 complex, sequence (Q15910 whole entry): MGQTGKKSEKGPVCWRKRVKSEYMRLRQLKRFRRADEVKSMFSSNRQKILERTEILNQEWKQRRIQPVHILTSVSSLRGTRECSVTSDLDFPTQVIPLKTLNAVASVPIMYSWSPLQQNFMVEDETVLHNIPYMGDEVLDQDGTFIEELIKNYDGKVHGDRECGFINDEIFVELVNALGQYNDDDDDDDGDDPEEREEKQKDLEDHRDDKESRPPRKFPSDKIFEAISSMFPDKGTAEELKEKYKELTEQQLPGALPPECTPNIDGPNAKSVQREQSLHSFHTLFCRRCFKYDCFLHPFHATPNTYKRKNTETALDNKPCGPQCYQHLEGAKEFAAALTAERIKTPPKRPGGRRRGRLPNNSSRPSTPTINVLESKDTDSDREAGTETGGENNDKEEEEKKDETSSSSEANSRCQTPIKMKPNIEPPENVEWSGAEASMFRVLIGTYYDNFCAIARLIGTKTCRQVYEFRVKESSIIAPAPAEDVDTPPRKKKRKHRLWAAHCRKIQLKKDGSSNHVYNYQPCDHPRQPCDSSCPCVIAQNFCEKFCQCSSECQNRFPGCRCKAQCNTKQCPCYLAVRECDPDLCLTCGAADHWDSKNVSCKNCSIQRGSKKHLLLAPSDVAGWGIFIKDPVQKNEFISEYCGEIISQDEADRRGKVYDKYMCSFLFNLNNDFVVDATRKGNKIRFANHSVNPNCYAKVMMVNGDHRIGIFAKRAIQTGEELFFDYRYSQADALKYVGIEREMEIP
# purified human, His-tagged PRC2 complex, sequence (O75530 whole entry): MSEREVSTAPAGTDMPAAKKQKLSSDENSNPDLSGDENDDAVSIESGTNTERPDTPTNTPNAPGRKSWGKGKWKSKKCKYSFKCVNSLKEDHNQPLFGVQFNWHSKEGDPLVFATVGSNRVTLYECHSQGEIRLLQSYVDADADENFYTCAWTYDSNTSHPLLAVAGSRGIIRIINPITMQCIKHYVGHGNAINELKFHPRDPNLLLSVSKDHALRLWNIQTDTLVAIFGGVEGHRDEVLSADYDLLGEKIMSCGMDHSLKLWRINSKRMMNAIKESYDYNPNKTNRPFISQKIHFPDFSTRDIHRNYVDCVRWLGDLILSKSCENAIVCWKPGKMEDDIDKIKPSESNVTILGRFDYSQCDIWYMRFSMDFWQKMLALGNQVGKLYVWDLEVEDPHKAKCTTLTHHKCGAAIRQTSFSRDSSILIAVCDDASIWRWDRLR
# purified human, His-tagged PRC2 complex, sequence (Q15022 whole entry partner): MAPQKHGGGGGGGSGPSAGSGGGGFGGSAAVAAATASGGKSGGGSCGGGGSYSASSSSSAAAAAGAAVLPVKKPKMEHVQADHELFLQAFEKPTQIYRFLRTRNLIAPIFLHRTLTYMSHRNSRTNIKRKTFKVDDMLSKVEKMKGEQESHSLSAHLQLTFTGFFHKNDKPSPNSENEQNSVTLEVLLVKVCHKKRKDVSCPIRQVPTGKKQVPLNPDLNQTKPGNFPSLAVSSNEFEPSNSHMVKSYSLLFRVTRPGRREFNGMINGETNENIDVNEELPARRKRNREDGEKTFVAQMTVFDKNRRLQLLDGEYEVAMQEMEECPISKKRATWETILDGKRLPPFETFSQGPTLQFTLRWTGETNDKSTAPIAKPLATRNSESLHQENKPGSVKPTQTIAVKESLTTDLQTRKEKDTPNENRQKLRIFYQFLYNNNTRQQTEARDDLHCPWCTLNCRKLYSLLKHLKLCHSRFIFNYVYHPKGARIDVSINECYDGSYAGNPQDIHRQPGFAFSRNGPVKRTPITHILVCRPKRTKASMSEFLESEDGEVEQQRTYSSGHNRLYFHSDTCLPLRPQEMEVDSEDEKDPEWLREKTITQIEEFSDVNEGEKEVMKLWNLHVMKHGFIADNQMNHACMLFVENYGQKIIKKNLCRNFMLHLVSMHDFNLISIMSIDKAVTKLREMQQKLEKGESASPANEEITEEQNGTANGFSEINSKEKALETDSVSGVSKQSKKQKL
# purified human, His-tagged PRC2 complex, sequence (Q6ZN18 whole entry partner): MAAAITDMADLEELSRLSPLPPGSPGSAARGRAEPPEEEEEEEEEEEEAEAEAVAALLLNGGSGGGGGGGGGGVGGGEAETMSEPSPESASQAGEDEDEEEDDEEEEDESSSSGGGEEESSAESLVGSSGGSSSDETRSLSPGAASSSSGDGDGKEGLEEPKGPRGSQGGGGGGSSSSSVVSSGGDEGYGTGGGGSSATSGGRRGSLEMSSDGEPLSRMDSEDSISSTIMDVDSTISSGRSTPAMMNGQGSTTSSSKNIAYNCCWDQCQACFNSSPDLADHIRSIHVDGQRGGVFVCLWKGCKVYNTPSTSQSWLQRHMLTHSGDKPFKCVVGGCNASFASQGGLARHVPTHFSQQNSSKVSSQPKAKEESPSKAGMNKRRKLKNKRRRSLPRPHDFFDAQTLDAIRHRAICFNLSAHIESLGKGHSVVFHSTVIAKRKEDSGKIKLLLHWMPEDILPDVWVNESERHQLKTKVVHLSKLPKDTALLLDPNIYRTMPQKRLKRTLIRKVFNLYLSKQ
# purified human, His-tagged PRC2 complex, sequence (Q09028 whole entry partner): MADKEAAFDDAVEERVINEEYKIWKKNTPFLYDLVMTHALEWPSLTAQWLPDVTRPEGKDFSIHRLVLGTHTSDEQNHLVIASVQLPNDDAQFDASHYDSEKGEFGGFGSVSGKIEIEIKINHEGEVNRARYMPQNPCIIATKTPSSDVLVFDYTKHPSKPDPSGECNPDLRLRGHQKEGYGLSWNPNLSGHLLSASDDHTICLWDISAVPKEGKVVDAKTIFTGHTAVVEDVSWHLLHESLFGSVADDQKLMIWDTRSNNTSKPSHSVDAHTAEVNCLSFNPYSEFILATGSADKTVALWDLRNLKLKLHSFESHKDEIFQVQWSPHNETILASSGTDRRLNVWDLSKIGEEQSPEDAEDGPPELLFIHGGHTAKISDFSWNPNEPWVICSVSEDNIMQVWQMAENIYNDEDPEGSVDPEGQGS
SMILES,IC50 [1],IC50 ([2]; Homo sapiens),IC50 ([3]; Homo sapiens),IC50 [2],IC50 [3]
"Cc1cc(-c2cnc(NCc3c(F)ccc4c3CCO4)n3cc(CNC4CC4)nc23)n(C)n1 [Example 33, 2-((cyclopropylamino)methyl)-8-(1,3-dimethyl-1H-pyrazol-5-yl)-N-((5-fluoro-2,3-dihydrobenzofuran-4-yl)methyl)imidazo[1,2-c]pyrimidin-5-amine]",0.5 to 2 µM,0.25 to 0.5 µM,0.25 to 0.5 µM,–,–
"Cc1cc(-c2cnc(NCc3c(F)ccc4c3CCO4)n3cc(CN(CCS(=O)(=O)F)CCS(=O)(=O)F)nc23)n(C)n1 [Example 28, 2,2′-(((8-(1,3-dimethyl-1H-pyrazol-5-yl)-5-(((5-fluoro-2,3-dihydrobenzofuran-4-yl)methyl)amino)imidazo[1,2-c]pyrimidin-2-yl)methyl)azanediyl)bis(ethane-1-sulfonylfluoride)]",0.5 to 2 µM,–,–,0.5 to 5 µM,0.5 to 5 µM
"CC(N)c1cn2c(NCc3c(F)ccc4c3CCO4)ncc(-c3cc(C#N)nn3C)c2n1 (stereo not drawn) [Example 40, 5-(2-(1-aminoethyl)-5-(((5-fluoro-2,3-dihydrobenzofuran-4-yl)methyl)amino)imidazo[1,2-c]pyrimidin-8-yl)-1-methyl-1H-pyrazole-3-carbonitrile]",< 0.25 µM,< 0.25 µM,< 0.25 µM,–,–
"Cc1cc(-c2cnc(NCc3cccc4c3CCO4)n3cc(CN)nc23)n(C)n1 [Example 23, 2-(aminomethyl)-N-((2,3-dihydrobenzofuran-4-yl)methyl)-8-(1,3-dimethyl-1H-pyrazol-5-yl)imidazo[1,2-c]pyrimidin-5-amine]",0.5 to 2 µM,0.5 to 5 µM,0.5 to 5 µM,–,–

# Continued, in another order:
IC50 [1],IC50 ([2]; Homo sapiens),IC50 ([3]; Homo sapiens),SMILES,IC50 [2],IC50 [3]
< 0.25 µM,< 0.25 µM,< 0.25 µM,"Cc1cc(-c2cnc(NCc3c(F)ccc4c3CCO4)n3cc(CN)nc23)n(C)n1 [Example 10, 2-(aminomethyl)-8-(1,3-dimethyl-1H-pyrazol-5-yl)-N-((5-fluoro-2,3-dihydrobenzofuran-4-yl)methyl)imidazol[1,2-c]pyramidin-5-amine]",–,–
0.5 to 2 µM,< 0.25 µM,< 0.25 µM,"Cc1cc(-c2cnc(NCc3c(F)ccc4c3CCO4)n3cc(C(C)N)nc23)n(C)n1 (single isomer, unassigned) [Example 11, 2-(1-aminoethyl)-8-(1,3-dimethyl-1H-pyrazol-5-yl)-N-((5-fluoro-2,3-dihydrobenzofuran-4-yl)methyl)imidazo[1,2-c]pyrimidin-5-amine]",–,–
0.5 to 2 µM,0.5 to 5 µM,0.5 to 5 µM,"NCc1cn2c(NCc3c(F)ccc4c3CCO4)ncc(-c3ccccc3Cl)c2n1 [Example 22, 2-(aminomethyl)-8-(2-chlorophenyl)-N-((5-fluoro-2,3-dihydrobenzofuran-4-yl)methyl)imidazo[1,2-c]pyrimidin-5-amine]",–,–
